{"source": "patent US20180243421A1", "about": "“IMMUNOSTIMULATING AGENT” (AJINOMOTO CO., INC., priority 2015, published 2018)", "key": {"[1]": {"test_system": "anti-OVA-specific IgG1 subclass antibody", "test": "Adjuvant activity: anti-OVA-specific IgG1 subclass antibody in serum after secondary immunization (Examples 1, 5, 7, 8; ELISA absorbance)", "format": "in vivo, BALB/c mice", "settings": "Example 7", "description": "Two weeks from the secondary immunization, the whole blood was extracted under anesthesia, and the obtained serum sample was measured for anti-OVA-specific IgG1 subclass antibody.\nA method for measurement of the anti-OVA-specific IgG1 subclass antibody in Example 1, and the following Examples 5, 7 and 8 is as follows.\nMeasurement Method of anti-OVA-specific IgG1 Subclass Antibody\nTo a 96 well plate was added 5 μg/ml OVA at 100 μl/well, and the mixture was incubated at 4° C. overnight. After incubation, the mixture was washed three times with 200 μl of PBS-T (PBS+0.05%(v/v) Tween 20) per well, and blocked with 100 μl of 5% FCS/PBS solution per well at room temperature for 1 to 2 hr. Thereafter, the mixture was washed three times with PBS-T (200 μl/well), a diluted serum sample (100 μl/well) or the same amount of 5% FCS/PBS solution as a control was added, and the mixture was incubated at 37° C. for 1 hr. Thereafter, the mixture was washed five times with PBS-T (200 μl/well), a diluted biotinylated anti-mouse IgG1 antibody (100 μl/well) was added, and the mixture was incubated at 37° C. for 45 min. Thereafter, the mixture was washed five times with PBS-T (200 μl/well), a diluted anti-biotin-HRP antibody was added (100 μl/well), and the mixture was incubated at 37° C. for another 30 min. Thereafter, the mixture was washed five times with PBS-T (200 μl/well), TMB substrate solution was added (100 μl/well), and the mixture was incubated at room temperature for 10 to 15 min. Thereafter, a reaction quenching liquid (2N sulfuric acid solution) was added (50 μl/well) to discontinue a color developing reaction, and the absorbance (OD Value=450 nm) was measured by a microplate reader."}, "[2]": {"test_system": "anti-OVA-specific IgE antibody", "settings": "mouse, in vivo", "description": "The serum sample obtained in Example 1 was measured for an anti-OVA-specific IgE antibody. The measurement method of the anti-OVA-specific IgE antibody in Example 3 and Examples 6, 9 is as follows.\nMeasurement Method of anti-OVA-specific IgE Antibody\nDS mouse IgE ELISA (OVA) kit manufactured by DS Pharma Biomedical Co., Ltd. was used. The protocol is briefly shown below.\nThe serum sample and a standard reagent for drawing an analytical curve are diluted with a buffer and, after stirring, left standing at room temperature for 10 min. The sample and the standard solution are added to a plate bound with an IgE capture antibody in advance and, after stirring, the mixture is left standing at room temperature for 60 min. The mixture is washed three times with wash, HRP-labeled OVA is added, and the mixture is left standing at room temperature for 30 min. The mixture is washed three times with wash, a substrate solution is added, and the mixture is left standing in dark at room temperature for 30 min. A reaction quenching liquid is added, the mixture is stirred, and the absorbance (OD Value=450 nm) is immediately measured.\nThis test was performed in the same manner as in Example 3 except that N^2-hexadecanoyl-L-arginine (SZ61), N-hexadecanoylagmatine (SZ62), N^2-hexadecanoyl-L-arginine methyl ester hydrochloride (SZ63), N^2-octadecanoyl-L-glutamine tert-butyl ester (SZ64), and N^2-octadecanoyl-L-glutamine (SZ65) were used.\nThis test was performed in the same manner as in Example 6 except that N-hexadecanoylagmatine (SZ62), N^2-octadecanoyl-L-glutamine tert-butyl ester (SZ64), N-docosanoyl-L-leucine methyl ester (SZ70), and N-docosanoyl-L-phenylalanine methyl ester (SZ71) were used and a positive control adjuvant Addavax™ (InvivoGen) administration group was formed.\n(§1) The allergy inducing activity test was performed in the same manner as in Example 3 except that Addavax™, N-(2-octadecyleicosanoyl)-L-leucine methyl ester (SZ86), N-hexadecanoyl-L-leucinamide (SZ90), N^2-hexadecanoyl-N^1,N^1-diethyl-L-leucinamide (SZ92), N^2-hexadecanoyl-L-arginine hexyl ester hydrochloride (SZ99) and N^2-docosanoyl-N^1,N^1-diethyl-L-glutamic acid 1-amide (SZ106) were used.\nas §1, with “N-hexadecanoyl-L-leucine” for “N^2-hexadecanoyl-L-arginine”, “(SZ97),” for “hydrochloride (SZ99) and”, “(SZ106) and N-docosanoylagmatine hydrochloride (SZ108)” for “(SZ106)”\n8-Week-old female BALB/c mice were divided into groups (N=6), and each group was primarily immunized by dorsal-subcutaneous administration of (1) ovalbumin (OVA) (5 μg) dissolved in saline as an antigen (OVA single administration group), (2) OVA (10 μg) and aluminum hydroxide salt dissolved in saline (Alum administration group), (3) OVA 10 μg and Addavax™ (mixed with saline at 1:1) dissolved in saline (Addavax™ administration group), (4) OVA 10 μg and CpG 5 μg dissolved in saline (CpG administration group), (5) OVA 10 μg and MPL 5 μg dissolved in saline (MPL administration group), (6) OVA (5 μg) and SZ62 (0.256 μmol) dissolved or dispersed in 5% αCD-added saline (SZ62 administration group), (7) OVA (5 μg), SZ62 (0.256 μmol) and CpG 5 μg dissolved or dispersed in 5% αCD-added saline (SZ62+CpG administration group), (8) OVA 10 μg, Addavax™ (mixed with saline at 1:1) and CpG 5 μg dissolved in saline (Addavax™+CpG administration group), (9) OVA (5 μg), SZ62 (0.256 μmol) and MPL 5 μg dissolved or dispersed in 5% αCD-added saline (SZ62+MPL administration group), (10) OVA (10 μg), aluminum hydroxide salt (Alum) and MPL 5 μg dissolved in saline (Alum+MPL administration group), each per mouse. One week later, the secondary immunization was carried out by dorsal-subcutaneous administration of solutions or dispersions similar to those of the above-mentioned (1) to (10) again."}, "[3]": {"test_system": "anti-OVA-specific IgG1 subclass antibody", "test": "Adjuvant activity after primary immunization: anti-OVA-specific IgG1 subclass antibody in serum (Examples 13-18)", "format": "in vivo, BALB/c mice", "settings": "OVA 5 μg + 0.256 μmol in 5% αCD saline s.c., serum after 12 days; for anti-OVA-specific IgG1 subclass antibody production after primary immunization: Example 13", "description": "8-Week-old female BALB/c mice were divided into groups (N=6), and each group was primarily immunized by dorsal-subcutaneous administration of (1) ovalbumin (OVA) (5 μg) dissolved in saline as an antigen (OVA single administration group), (2) OVA (5 μg) and SZ83 (0.256 μmol) dissolved or dispersed in 5% αCD-added saline (SZ83 administration group), (3) OVA (5 μg) and SZ84 (0.256 μmol) dissolved or dispersed in 5% αCD-added saline (SZ84 administration group), (4) OVA (5 μg) and SZ86 (0.256 μmol) dissolved or dispersed in 5% αCD-added saline (SZ86 administration group), (5) OVA (5 μg) and SZ89 (0.256 μmol) dissolved or dispersed in 5% αCD-added saline (SZ89 administration group), (6) OVA (5 μg) and SZ90 (0.256 μmol) dissolved or dispersed in 5% αCD-added saline (SZ90 administration group), each per mouse. After 12 days, blood samples were collected under anesthesia, and the obtained serum samples were subjected to the measurement of an anti-OVA-specific IgG1 subclass antibody.\nMeasurement Method of Concentration of anti-OVA-specific IgG1 Subclass Antibody and anti-OVA-specific IgG2a Subclass Antibody\nTo a 96 well plate was added 5 μg/ml OVA at 100 μl/well, and the mixture was incubated at 4° C. overnight. After incubation, the mixture was washed three times with 200 μl of PBS-T (PBS+0.05% (v/v) Tween 20) per well, and blocked with 100 μl of 5% FCS/PBS solution per well at room temperature for 1 to for 2 hr. Thereafter, the mixture was washed three times with PBS-T (200 μl/well), a diluted serum sample (100 μl/well) or the same amount of 5% FCS/PBS solution as a control was added, to and the mixture was incubated at 37° C. for 1 hr. To calculate concentration of the antibody, the standard of an anti-OVA-specific IgG1 subclass antibody diluted with 2% FCS/PBS solution was added at 100 ng/ml, 50 ng/ml, 25 ng/ml, 12.5 ng/ml, 6.25 ng/ml, 3.125 ng/ml, 1.56 ng/ml, 0.781 ng/ml, 0.391 ng/ml, 0.195 ng/ml, 0.098 ng/ml, 0 ng/ml, per 1 well. When an anti-OVA-specific IgG2a subclass antibody was measured, the standard of an anti-OVA-specific IgG2a subclass antibody was added at 50 ng/ml, 25 ng/ml, 12,5 ng/ml, 6.25 ng/ml, 3.125 ng/ml, 1.56 ng/ml, 0.781 ng/ml, 0.391 ng/ml, 0.195 ng/ml, 0.098 ng/ml, 0.049 ng/ml, 0 ng/ml, per 1 well. […] Thereafter, the mixture was washed five times with PBS-T (200 μl/well), a diluted anti-biotin-HRP antibody was added (100 μl/well), and the mixture was incubated at 37° C. for another 30 min. Thereafter, the mixture was washed five times with PBS-T (200 μl/well), TMB substrate solution was added (100 μl/well), and the mixture was incubated at room temperature for 10- for 15 min. Thereafter, a reaction quenching liquid (2N sulfuric acid solution) was added (50 μl/well) to discontinue a color developing reaction, and the absorbance (OD Value=450 nm) was measured by a microplate reader. A standard curve was drawn from the measured OD values, and the concentration was calculated.\n8-Week-old female BALB/c mice were divided into groups (N=6), and each group was primarily immunized by dorsal-subcutaneous administration of (1) ovalbumin (OVA) (5 μg) dissolved in saline as an antigen (OVA single administration group), (2) OVA (5 μg) and SZ92 (0.256 μmol) dissolved or dispersed in 5% αCD-added saline (SZ92 administration group), (3) OVA (5 μg) and SZ94 (0.256 μmol) dissolved or dispersed in 5% αCD-added saline (SZ94 administration group), (4) OVA (5 μg) and SZ95 (0.256 μmol) dissolved or dispersed in 5% αCD-added saline (SZ95 administration group), (5) OVA (5 μg) and SZ96 (0.256 μmol) dissolved or dispersed in 5% αCD-added saline (SZ96 administration group), each per mouse. After 12 days, blood samples were collected under anesthesia, and the obtained serum samples were subjected to the measurement of anti-OVA-specific IgG1 subclass antibody."}}, "data": [{"compound": "CCCCCCCCCCCCCCCCCCCCCC(=O)N[C@@H](Cc1ccccc1)C(=O)OC", "note": "[SZ71, N-docosanoyl-L-phenylalanine methyl ester]", "values": [{"measurement": "adjuvant activity (IgG1) compared with Alum", "setting": "[1]", "result": "equivalent to or not less than that of Alum"}, {"measurement": "anti-OVA-specific IgG1 subclass antibody production compared with Alum", "setting": "[1]", "result": "equivalent to or not less than that of Alum"}, {"measurement": "anti-OVA-specific IgG1 subclass antibody production as compared to the OVA single administration group", "setting": "[1]; same manner as Example 1, plus Addavax group", "result": "a significant difference was not found"}, {"measurement": "allergy inducing activity as compared to aluminum hydroxide gel adjuvant and Addavax", "setting": "[2]", "result": "lower allergy inducing activity"}]}, {"compound": "COC(=O)[C@H](CC(C)C)NC(C)=O", "note": "[SZ83, N-acetyl-L-leucine methyl ester]", "values": [{"measurement": "anti-OVA-specific IgG1 subclass antibody production after primary immunization", "setting": "[3]", "result": "show a tendency to increase"}]}, {"compound": "CCCCCC(=O)N[C@@H](CC(C)C)C(=O)OC", "note": "[SZ84, N-hexanoyl-L-leucine methyl ester]", "values": [{"measurement": "anti-OVA-specific IgG1 subclass antibody production after primary immunization", "setting": "[3]", "result": "show a tendency to increase"}]}, {"compound": "CCCCCCCCCCCCCCCC(=O)N[C@@H](CC(C)C)C(=O)OC(C)(C)C", "note": "[SZ89, N-hexadecanoyl-L-leucine tert-butyl ester]", "values": [{"measurement": "anti-OVA-specific IgG1 subclass antibody production after primary immunization", "setting": "[3]", "result": "show a tendency to increase"}]}, {"compound": "CCCCCCCCCCCCCCCC(=O)N[C@@H](Cc1c[nH]cn1)C(=O)OC", "note": "[SZ94, N-hexadecanoyl-L-histidine methyl ester]", "values": [{"measurement": "anti-OVA-specific IgG1 subclass antibody production after primary immunization as compared to the OVA single administration group", "setting": "[3]; Example 14", "result": "tended to increase"}]}, {"compound": "CCCCCCCCCCCCCCCC(=O)N1CCC[C@H]1C(=O)OC", "note": "[SZ95, N-hexadecanoyl-L-proline methyl ester]", "values": [{"measurement": "anti-OVA-specific IgG1 subclass antibody production after primary immunization as compared to the OVA single administration group", "setting": "[3]; Example 14", "result": "tended to increase"}]}, {"compound": "CCCCCCCCCCCCCCCC(=O)N[C@@H](CO)C(=O)OC", "note": "[SZ96, N-hexadecanoyl-L-serine methyl ester]", "values": [{"measurement": "anti-OVA-specific IgG1 subclass antibody production after primary immunization as compared to the OVA single administration group", "setting": "[3]; Example 14", "result": "tended to increase"}]}, {"compound": "CCCCCCCCCCCCCCCC(=O)N[C@@H](CCCNC(=N)N)C(=O)N(CC)CC.Cl", "note": "[SZ110, N^2-hexadecanoyl-N^1,N^1-diethyl-L-arginine amide hydrochloride salt]", "values": [{"measurement": "anti-OVA-specific IgG1 subclass antibody production after primary immunization as compared to the OVA single administration group", "setting": "[3]; Example 16", "result": "tended to increase"}]}, {"compound": "CCCCCCCCCCCCCCCCCCCCCC(=O)N[C@@H](CCCNC(=N)N)C(=O)OCCCCCC.Cl", "note": "[SZ121, N^2-docosanoyl-L-arginine hexyl ester hydrochloride salt]", "values": [{"measurement": "anti-OVA-specific IgG1 subclass antibody production after primary immunization as compared to the OVA single administration group", "setting": "[3]; Example 17", "result": "significantly increased"}]}, {"compound": "CCCCCCCCCCCCCCCCCCCCCC(=O)N[C@@H](CC(C)C)C(=O)OCCCCCC", "note": "[SZ124, N-docosanoyl-L-leucine hexyl ester]", "values": [{"measurement": "anti-OVA-specific IgG1 subclass antibody production after primary immunization as compared to the OVA single administration group", "setting": "[3]; Example 17", "result": "tended to increase"}]}, {"compound": "CCCCCCCCCCCCCCCCCCCCCC(=O)N[C@@H](CC(C)C)C(=O)N(CC)CC", "note": "[SZ125, N^2-docosanoyl-N^1,N^1-diethyl-L-leucinamide]", "values": [{"measurement": "anti-OVA-specific IgG1 subclass antibody production after primary immunization as compared to the OVA single administration group", "setting": "[3]; Example 17", "result": "tended to increase"}]}]}
